Assay results taken from patent US20120129843A1, “PYRIDYL-THIAZOLYL INHIBITORS OF PRO-MATRIX METALLOPROTEINASE ACTIVATION” (priority 2010, published 2012).
Counter-ions that a name gives are not always drawn.

Key:
[1] = target: T1, full-length proMMP9(1-707) (SEQ ID NO:1), activation by catalytic MMP3 (Homo sapiens, UniProt P14780, R574P); test: proMMP9/MMP3 P126 Activation Assay; type: biochemical
T1 construct: made in house; host or cells: HEK293 (proMMP9, secreted); E. coli (MMP3)
Protocol: proMMP9/MMP3 P126 Activation Assay
The reaction volume was 50 μL. […] Reactivity of residual MMP3 towards P-126 substrate was minimal under these conditions.

[2] = target: T2, proMMP9(20-445;ΔFnII) (SEQ ID NO:6) (Homo sapiens, UniProt P14780, DEL216-390); test: ThermoFluor binding assay with proMMP9(20-445;ΔFnII)
T2 construct: start methionine (N); made in house; host or cells: E. coli BL21(DE3) RIL
T2 sequence (P14780 with tags, fused parts or gaps DEL216-390): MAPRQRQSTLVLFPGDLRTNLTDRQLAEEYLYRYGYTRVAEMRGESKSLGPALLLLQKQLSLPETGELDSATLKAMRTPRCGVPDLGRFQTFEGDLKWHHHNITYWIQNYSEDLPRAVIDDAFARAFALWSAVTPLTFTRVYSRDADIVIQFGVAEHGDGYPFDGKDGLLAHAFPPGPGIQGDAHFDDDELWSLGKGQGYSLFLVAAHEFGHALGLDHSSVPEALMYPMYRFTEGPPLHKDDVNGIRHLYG
Protocol: The ThermoFluor® (TF) assay is a 384-well plate-based binding assay that measures thermal stability of proteins (Biomol Screen 2001, 6, 429-40; Biochemistry 2005, 44, 5258-66). The experiments were carried out using instruments available from Johnson & Johnson Pharmaceutical Research & Development, LLC. TF dye used in all experiments was […] (1,8-ANS) (Invitrogen: A-47).
Compounds were arranged in a pre-dispensed plate (Greiner Bio-one: 781280), wherein compounds were serially diluted in 100% DMSO across 11 columns within a series. Columns 12 and 24 were used as DMSO reference and contained no compound. For multiple compound concentration-response experiments, the compound aliquots ([…]) were robotically predispensed directly into black 384-well polypropylene PCR microplates (Abgene: TF-0384/k) using a Cartesian Hummingbird liquid handler (DigiLab, Holliston, Mass.). Following compound dispense, protein and dye solutions were added to achieve the final assay volume of 3 μL. The assay solutions were overlayed with 1 μL of silicone oil (Fluka, type DC 200: 85411) to prevent evaporation.
Assay plates were robotically loaded onto a thermostatically controlled PCR-type thermal block and then heated from 40 to 90° C. at a ramp-rate of 1° C./min for all experiments. Fluorescence was measured by continuous illumination with UV light (Hamamatsu LC6) supplied via fiber optics and filtered through a band-pass filter (380-400 nm; >60D cutoff). Fluorescence emission of the entire 384-well plate was detected by measuring light intensity using a CCD camera (Sensys, Roper Scientific) filtered to detect 500±25 nm, resulting in simultaneous and independent readings of all 384 wells. A single image with 20-sec exposure time was collected at each temperature, and the sum of the pixel intensity in a given area of the assay plate was recorded vs temperature and fit to standard equations to yield the Tm (J Biomol Screen 2001, 6, 429-40).
Thermodynamic parameters necessary for fitting compound binding for each proMMP were estimated by differential scanning calorimetry (DSC) and from ThermoFluor® data. The heat capacity of unfolding for each protein was estimated from the molecular weight and from ThermoFluor® dosing data.
ThermoFluor® with proMMP9(20-445;ΔFnII) (SEQ ID NO:6)
The protein sample preparations included a desalting buffer exchange step via a PD-10 gravity column (GE Healthcare). The desalting buffer exchange was performed prior to diluting the protein to the final assay concentration of 2.8 μM proMMP9(20-445;ΔFnII) (SEQ ID NO:6). The concentration of proMMP9(20-445;ΔFnII) (SEQ ID NO:6) was determined spectrophotometrically based on a calculated extinction coefficient of ε280=39880 M^−1cm^−1, a calculated molecular weight of 28.2 kDa, and calculated pI of 5.5. ThermoFluor® reference conditions were define as follows: 80 μg/mL (2.8 μM) proMMP9(20-445;ΔFnII) (SEQ ID NO:6), 50 μM 1,8-ANS, pH 7.0 Buffer (50 mM HEPES pH 7.0, 100 mM NaCl, 0.001% Tween-20, 2.5 mM MgCl2, 300 μM CaCl2). The thermodynamic parameters for proMMP9(20-445;ΔFnII) (SEQ ID NO:6) are as follows: Tm (° C.)=72 (+/−0.1), ΔUH(Tm) (cal mol^−1)=160000(+/−5000), ΔUS(Tm) (cal mol^−1 K^−1)=434, ΔUCp (cal mol^−1 K^−1)=2400.

T1 sequence (P14780 20-707 R574P): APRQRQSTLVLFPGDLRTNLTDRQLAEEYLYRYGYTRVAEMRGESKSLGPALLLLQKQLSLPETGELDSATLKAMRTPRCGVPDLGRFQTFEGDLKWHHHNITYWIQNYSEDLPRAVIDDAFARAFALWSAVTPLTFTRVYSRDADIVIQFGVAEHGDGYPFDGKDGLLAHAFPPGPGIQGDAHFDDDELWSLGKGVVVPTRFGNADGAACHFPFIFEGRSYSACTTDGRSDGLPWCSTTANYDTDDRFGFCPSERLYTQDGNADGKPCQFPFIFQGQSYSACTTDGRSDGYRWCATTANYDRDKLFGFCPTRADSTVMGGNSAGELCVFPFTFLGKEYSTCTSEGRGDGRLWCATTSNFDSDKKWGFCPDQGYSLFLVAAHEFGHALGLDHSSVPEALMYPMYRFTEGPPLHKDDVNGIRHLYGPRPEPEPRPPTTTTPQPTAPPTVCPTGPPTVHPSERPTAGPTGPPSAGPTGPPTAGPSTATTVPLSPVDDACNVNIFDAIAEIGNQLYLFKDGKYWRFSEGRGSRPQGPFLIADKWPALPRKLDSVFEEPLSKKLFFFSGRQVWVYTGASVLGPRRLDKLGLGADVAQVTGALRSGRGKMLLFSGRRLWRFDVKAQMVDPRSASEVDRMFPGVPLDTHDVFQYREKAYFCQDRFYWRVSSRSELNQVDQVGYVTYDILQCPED

| SMILES | IC50 [1] | Kd [2] |
| --- | --- | --- |
| CC(C)Oc1ccc(S(N)(=O)=O)cc1Nc1nc(-c2ccc(N3CCN(CCC(F)(F)F)CC3)nc2)cs1 [Example 66, 4-Isopropoxy-3-((4-(6-(4-(3,3,3-trifluoropropyl)piperazin-1-yl)pyridin-3-yl)thiazol-2-yl)amino)benzenesulfonamide.TFA] | > 20000 nM | 310 nM |
| CC(C)Oc1ccc(S(N)(=O)=O)cc1Nc1nc(-c2ccc(N3CCC(O)CC3)nc2)cs1 [Example 70, 3-((4-(6-(4-Hydroxypiperidin-1-yl)pyridin-3-yl)thiazol-2-yl)amino)-4-isopropoxybenzenesulfonamide.TFA] | 340 nM | 250 nM |
| CC(C)Oc1ccc(S(N)(=O)=O)cc1Nc1nc(-c2ccc(N3CCCCC3)nc2)cs1 [Example 76, 4-Isopropoxy-3-((4-(6-(piperidin-1-yl)pyridin-3-yl)thiazol-2-yl)amino)benzenesulfonamide.TFA] | > 20000 nM | 240 nM |
| CC1CCN(c2ccc(-c3csc(Nc4cc(S(N)(=O)=O)ccc4OC(C)C)n3)cn2)CC1 [Example 77, 4-Isopropoxy-3-((4-(6-(4-methylpiperidin-1-yl)pyridin-3-yl)thiazol-2-yl)amino)benzenesulfonamide.TFA] | > 20000 nM | 1900 nM |
| COC1CCN(c2ccc(-c3csc(Nc4cc(S(N)(=O)=O)ccc4OC(C)C)n3)cn2)CC1 [Example 78, 4-Isopropoxy-3-((4-(6-(4-methoxypiperidin-1-yl)pyridin-3-yl)thiazol-2-yl)amino)benzenesulfonamide.TFA] | ~300 nM | 340 nM |
| CC(C)Oc1ccc(S(N)(=O)=O)cc1Nc1nc(-c2ccc(N3CCC(CO)CC3)nc2)cs1 [Example 79, 3-((4-(6-(4-(Hydroxymethyl)piperidin-1-yl)pyridin-3-yl)thiazol-2-yl)amino)-4-isopropoxybenzenesulfonamide.TFA] | 340 nM | 150 nM |
| CC(C)Oc1ccc(S(N)(=O)=O)cc1Nc1nc(-c2ccc(N3CCNC(C(F)(F)F)C3)nc2)cs1 (centres unmarked) [Example 80, 4-Isopropoxy-3-((4-(6-(3-(trifluoromethyl)piperazin-1-yl)pyridin-3-yl)thiazol-2-yl)amino)benzenesulfonamide.TFA] | 360 nM | 150 nM |
| CC(C)Oc1ccc(S(N)(=O)=O)cc1Nc1nc(-c2ccc(N3CCn4ccnc4C3)nc2)cs1 [Example 82, 3-((4-(6-(5,6-Dihydroimidazo[1,2-a]pyrazin-7(8H)-yl)pyridin-3-yl)thiazol-2-yl)amino)-4-isopropoxybenzenesulfonamide.TFA] | 370 nM | 99 nM |
| CC(C)Oc1ccc(S(N)(=O)=O)cc1Nc1nc(-c2ccc(C(=O)NCC3CCN(C)CC3)nc2)cs1 [Example 95, 5-(2-((2-Isopropoxy-5-sulfamoylphenyl)amino)thiazol-4-yl)-N-((1-methylpiperidin-4-yl)methyl)picolinamide.TFA] | 310 nM |  |
| CC(C)Oc1ccc(S(N)(=O)=O)cc1Nc1nc(-c2ccnc(Cl)c2)cs1 [Intermediate 9, 3-[4-(2-Chloro-pyridin-4-yl)-thiazol-2-ylamino]-4-isopropoxy-benzenesulfonamide.TFA] |  | 96000 nM |

The next lines start with the values.

| IC50 [1] | Kd [2] | SMILES |
| --- | --- | --- |
| 240 nM | 110 nM | CCN1CCC(NC(=O)c2ccc(-c3csc(Nc4cc(S(N)(=O)=O)ccc4OC(C)C)n3)cn2)CC1 [Example 57, 5-[2-(2-Isopropoxy-5-sulfamoyl-phenylamino)-thiazol-4-yl]-pyridine-2-carboxylic acid (1-ethyl-piperidin-4-yl)-amide.TFA] |
| 300 nM |  | CC(C)Oc1ccc(S(N)(=O)=O)cc1Nc1nc(-c2ccc(N3CCN(C4CC4)CC3)nc2)cs1 [Example 61, 3-((4-(6-(4-Cyclopropylpiperazin-1-yl)pyridin-3-yl)thiazol-2-yl)amino)-4-isopropoxybenzenesulfonamide.TFA] |
| 210 nM | 69 nM | CC(=O)N1CCN(c2ccc(-c3csc(Nc4cc(S(N)(=O)=O)ccc4OC(C)C)n3)cn2)CC1 [Example 65, 3-((4-(6-(4-Acetylpiperazin-1-yl)pyridin-3-yl)thiazol-2-yl)amino)-4-isopropoxybenzenesulfonamide.TFA] |
| 130 nM | 71 nM | CC1CN(c2ccc(-c3csc(Nc4cc(S(N)(=O)=O)ccc4OC(C)C)n3)cn2)CC(C)N1 (centres unmarked) [Example 67, 3-((4-(6-(3,5-Dimethylpiperazin-1-yl)pyridin-3-yl)thiazol-2-yl)amino)-4-isopropoxybenzenesulfonamide.TFA] |
| 130 nM | 71 nM | CC(C)Oc1ccc(S(N)(=O)=O)cc1Nc1nc(-c2ccc(N3C[C@@H](C)N[C@@H](C)C3)nc2)cs1 [Example 68, 3-((4-(6-(cis-3,5-Dimethylpiperazin-1-yl)pyridin-3-yl)thiazol-2-yl)amino)-4-isopropoxybenzenesulfonamide.TFA] |
| 100 nM | 65 nM | CC(C)Oc1ccc(S(N)(=O)=O)cc1Nc1nc(-c2ccc(N3CCNC(C)(C)C3)nc2)cs1 [Example 69, 3-((4-(6-(3,3-Dimethylpiperazin-1-yl)pyridin-3-yl)thiazol-2-yl)amino)-4-isopropoxybenzenesulfonamide.TFA] |
| 170 nM | 75 nM | CC(C)Oc1ccc(S(N)(=O)=O)cc1Nc1nc(-c2ccc(N3CCN(CC4CC4)CC3)nc2)cs1 [Example 71, 3-((4-(6-(4-(Cyclopropylmethyl)piperazin-1-yl)pyridin-3-yl)thiazol-2-yl)amino)-4-isopropoxybenzenesulfonamide.TFA] |
| 140 nM | 110 nM | CC(C)Oc1ccc(S(N)(=O)=O)cc1Nc1nc(-c2ccc(C3=CCNCC3)nc2)cs1 [Example 72, 4-Isopropoxy-3-((4-(1′,2′,3′,6′-tetrahydro-[2,4′-bipyridin]-5-yl)thiazol-2-yl)amino)benzenesulfonamide.TFA] |
| 210 nM | 120 nM | CC(C)Oc1ccc(S(N)(=O)=O)cc1Nc1nc(-c2ccc(N3CCNC(C(N)=O)C3)nc2)cs1 (centres unmarked) [Example 73, 4-(5-(2-((2-Isopropoxy-5-sulfamoylphenyl)amino)thiazol-4-yl)pyridin-2-yl)piperazine-2-carboxamide.TFA] |
| 160 nM | 170 nM | COCCN(C)c1ccc(-c2csc(Nc3cc(S(N)(=O)=O)ccc3OC(C)C)n2)cn1 [Example 74, 4-Isopropoxy-3-((4-(6-((2-methoxyethyl)(methyl)amino)pyridin-3-yl)thiazol-2-yl)amino)benzenesulfonamide.TFA] |
| 110 nM | 280 nM | CC(C)Oc1ccc(S(N)(=O)=O)cc1Nc1nc(-c2ccc(N(C)CCO)nc2)cs1 [Example 75, 3-((4-(6-((2-Hydroxyethyl)(methyl)amino)pyridin-3-yl)thiazol-2-yl)amino)-4-isopropoxybenzenesulfonamide.TFA] |
| 130 nM | 130 nM | CC(C)Oc1ccc(S(N)(=O)=O)cc1Nc1nc(-c2ccc(C3CCNCC3)nc2)cs1 [Example 81, 4-Isopropoxy-3-((4-(6-(piperidin-4-yl)pyridin-3-yl)thiazol-2-yl)amino)benzenesulfonamide.TFA] |
